Reference: patent US7355047B2, “Substituted quinolone carboxylic acids, their derivatives, site of action, and uses thereof” (The Regents of the University of California, priority 2002, dated 2008)

What was measured:
[1] = tested on: GABAA receptor complex (GRC); test: [35S]TBPS binding assay, rat cortex; settings: 2 nM [35S]TBPS, rat cortex; for IC50: read-out: IC50 (inhibition of [35S]TBPS binding); for % Inhibition of 2 nM TBPS in Rat Cortex at 10 μM: 10 μM compound, plain numbers = inhibition
[2] = tested on: GABAA receptor complex (GRC); test: [35S]TBPS binding dissociation, mouse forebrain; settings: 2 nM [35S]TBPS, initiated by 10 μM compound 3, 10 μM mefenamic acid, FIG. 13
[3] = tested on: GABAA receptor complex (GRC); test: [35S]TBPS binding, rat cerebellum; settings: 2 nM [35S]TBPS, 30 μM furosemide, FIG. 14

Row | Compound | IC50 [1] [µM] | % Inhibition of 2 nM TBPS in Rat Cortex at 10 μM [1] [%] | also measured
1 | CCCC(C)C1(CC)C(=O)NC(=O)NC1=O (stereo not drawn) [pentobarbital, reference compound] | – | – | dissociation of [35S]TBPS binding in absence or presence of pentobarbital ([1]; initiated by 10 μM compound 3, 30 μM pentobarbital, FIG. 10): accelerate the dissociation of [^35S]TBPS binding
2 | CCn1cc(C(=O)O)c(=O)c2cc(NC3CCCc4ccccc43)c(Cl)cc21 (stereo not drawn) [drawing 15] | 2.7 | 70 | –
3 | C[C@H](O)[C@H]1CC[C@H]2[C@@H]3CC[C@H]4C[C@H](O)CC[C@]4(C)[C@H]3CC[C@]12C [5α,20α-diol, 5α-pregnan-3α,20α-diol, reference compound] | – | – | interaction with 5α,20α-diol inhibition of [35S]TBPS binding (neurosteroid site) ([1]; 10 μM compound 3 or 100 nM 3α,5α-P, FIG. 8): antagonize the effect of 3α,5α-P
4 | CN1C(=O)CN=C(c2ccc(Cl)cc2)c2cc(Cl)ccc21 [4′-chlorodiazepam, reference compound] | – | – | effect on [35S]TBPS binding in absence or presence of Ro5-4864 (4′-chlorodiazepam) ([1]; 0.3, 1 and 30 μM Ro5-4864, FIG. 11): inability of 4′-chlorodiazepam to produce a dose-dependent rightward parallel shift
5 | CCn1cc(C(=O)O)c(=O)c2cc(NCC(C)c3ccccc3)c(Cl)cc21 (stereo not drawn) | 4 | 65 | –
6 | Cc1cccc(Nc2ccccc2C(=O)O)c1C [mefenamic acid, reference compound] | – | – | dissociation of [35S]TBPS binding in absence or presence of mefenamic acid [2]: accelerate the dissociation of [^35S]TBPS binding
7 | CCCNC(=O)c1cn(CC)c2cc(Cl)c(NC3CCCc4ccccc43)cc2c1=O (stereo not drawn) | 1.5 | 86 | –
8 | CCn1cc(C(=O)O)c(=O)c2cc(NC(C)CCc3ccccc3)c(Cl)cc21 (stereo not drawn) | 2 | 84 | –
9 | CCn1cc(C(=O)O)c(=O)c2cc(F)c(N3CCNCC3)cc21 [norfloxacin, reference compound] | – | – | effect on [35S]TBPS binding in absence or presence of norfloxacin ([1]; 30 μM and 100 μM norfloxacin, FIG. 9): inability of norfloxacin to produce a dose-dependent rightward parallel shift
10 | NS(=O)(=O)c1cc(C(=O)O)c(NCc2ccco2)cc1Cl [furosemide, reference compound] | – | – | effect on [35S]TBPS binding in absence or presence of furosemide [3]: inability of furosemide to produce a dose-dependent rightward parallel shift
11 | CCOC(=O)c1cn(CC)c2cc(Cl)c(NC3CCCc4ccccc43)cc2c1=O (stereo not drawn) | 0.88 | – | –
